Experimental data published in ChEMBL document CHEMBL3046358, “Multiple Pro-197 substitutions in the acetolactate synthase of rigid ryegrass (Lolium rigidum) and their impact on chlorsulfuron activity and plant growth” (Crop Prot, 2012).

Key:
Format in all cases: functional
Lolium rigidum [1] = experiment: Herbicidal activity against Lolium rigidum accession A15 assessed as emergence rate applied at 1 times pre-emergence recommended rate relative to untreated control
Lolium rigidum [2] = experiment: Herbicidal activity against Lolium rigidum accession A14 assessed as emergence rate applied at 1 times pre-emergence recommended rate relative to untreated control
Lolium rigidum [3] = experiment: Herbicidal activity against Lolium rigidum accession A13 assessed as emergence rate applied at 1 times pre-emergence recommended rate relative to untreated control
Lolium rigidum [4] = experiment: Herbicidal activity against Lolium rigidum accession A12 assessed as emergence rate applied at 1 times pre-emergence recommended rate relative to untreated control
Lolium rigidum [5] = experiment: Herbicidal activity against Lolium rigidum accession A11 assessed as emergence rate applied at 1 times pre-emergence recommended rate relative to untreated control
Lolium rigidum [6] = experiment: Herbicidal activity against Lolium rigidum accession A10 assessed as emergence rate applied at 1 times pre-emergence recommended rate relative to untreated control
Lolium rigidum [7] = experiment: Herbicidal activity against Lolium rigidum accession A09 assessed as emergence rate applied at 1 times pre-emergence recommended rate relative to untreated control
Lolium rigidum [8] = experiment: Herbicidal activity against Lolium rigidum accession A08 assessed as emergence rate applied at 1 times pre-emergence recommended rate relative to untreated control
Lolium rigidum [9] = experiment: Herbicidal activity against Lolium rigidum accession A07 assessed as emergence rate applied at 1 times pre-emergence recommended rate relative to untreated control
Lolium rigidum [10] = experiment: Herbicidal activity against Lolium rigidum accession A06 assessed as emergence rate applied at 1 times pre-emergence recommended rate relative to untreated control
Lolium rigidum [11] = experiment: Herbicidal activity against Lolium rigidum accession A05 assessed as emergence rate applied at 1 times pre-emergence recommended rate relative to untreated control
Lolium rigidum [12] = experiment: Herbicidal activity against Lolium rigidum accession A04 assessed as emergence rate applied at 1 times pre-emergence recommended rate relative to untreated control
Lolium rigidum [13] = experiment: Herbicidal activity against Lolium rigidum accession A03 assessed as emergence rate applied at 1 times pre-emergence recommended rate relative to untreated control
Lolium rigidum [14] = experiment: Herbicidal activity against Lolium rigidum accession A02 assessed as emergence rate applied at 1 times pre-emergence recommended rate relative to untreated control
Lolium rigidum [15] = experiment: Herbicidal activity against Lolium rigidum accession A01 assessed as emergence rate applied at 1 times pre-emergence recommended rate relative to untreated control
Lolium rigidum [16] = experiment: Herbicidal activity against Lolium rigidum accession A14 assessed as fresh weight reduction applied at 1 times pre-emergence recommended rate relative to untreated control; design: scale not given: the % may be the effect or the level left
Lolium rigidum [17] = experiment: Herbicidal activity against Lolium rigidum accession A13 assessed as fresh weight reduction applied at 1 times pre-emergence recommended rate relative to untreated control; design: scale not given: the % may be the effect or the level left
Lolium rigidum [18] = experiment: Herbicidal activity against Lolium rigidum accession A12 assessed as fresh weight reduction applied at 1 times pre-emergence recommended rate relative to untreated control; design: scale not given: the % may be the effect or the level left
Lolium rigidum [19] = experiment: Herbicidal activity against Lolium rigidum accession A11 assessed as fresh weight reduction applied at 1 times pre-emergence recommended rate relative to untreated control; design: scale not given: the % may be the effect or the level left
Lolium rigidum [20] = experiment: Herbicidal activity against Lolium rigidum accession A10 assessed as fresh weight reduction applied at 1 times pre-emergence recommended rate relative to untreated control; design: scale not given: the % may be the effect or the level left
Lolium rigidum [21] = experiment: Herbicidal activity against Lolium rigidum accession A09 assessed as fresh weight reduction applied at 1 times pre-emergence recommended rate relative to untreated control; design: scale not given: the % may be the effect or the level left
Lolium rigidum [22] = experiment: Herbicidal activity against Lolium rigidum accession A08 assessed as fresh weight reduction applied at 1 times pre-emergence recommended rate relative to untreated control; design: scale not given: the % may be the effect or the level left
Lolium rigidum [23] = experiment: Herbicidal activity against Lolium rigidum accession A07 assessed as fresh weight reduction applied at 1 times pre-emergence recommended rate relative to untreated control; design: scale not given: the % may be the effect or the level left
Lolium rigidum [24] = experiment: Herbicidal activity against Lolium rigidum accession A06 assessed as fresh weight reduction applied at 1 times pre-emergence recommended rate relative to untreated control; design: scale not given: the % may be the effect or the level left
Lolium rigidum [25] = experiment: Herbicidal activity against Lolium rigidum accession A05 assessed as fresh weight reduction applied at 1 times pre-emergence recommended rate relative to untreated control; design: scale not given: the % may be the effect or the level left
Lolium rigidum [26] = experiment: Herbicidal activity against Lolium rigidum accession A04 assessed as fresh weight reduction applied at 1 times pre-emergence recommended rate relative to untreated control; design: scale not given: the % may be the effect or the level left
Lolium rigidum [27] = experiment: Herbicidal activity against Lolium rigidum accession A03 assessed as fresh weight reduction applied at 1 times pre-emergence recommended rate relative to untreated control; design: scale not given: the % may be the effect or the level left
Lolium rigidum [28] = experiment: Herbicidal activity against Lolium rigidum accession A02 assessed as fresh weight reduction applied at 1 times pre-emergence recommended rate relative to untreated control; design: scale not given: the % may be the effect or the level left
Lolium rigidum [29] = experiment: Herbicidal activity against Lolium rigidum accession A01 assessed as fresh weight reduction applied at 1 times pre-emergence recommended rate relative to untreated control; design: scale not given: the % may be the effect or the level left
Lolium rigidum [30] = experiment: Herbicidal activity against Lolium rigidum accession A15 assessed as fresh weight reduction applied at 1 times pre-emergence recommended rate relative to untreated control; design: scale not given: the % may be the effect or the level left
Lolium rigidum [31] = experiment: Herbicidal activity against Lolium rigidum accession A03 assessed as fresh weight reduction applied at recommended rate incorporated into the soil prior weed seedlings relative to untreated control; design: scale not given: the % may be the effect or the level left
Lolium rigidum [32] = experiment: Herbicidal activity against Lolium rigidum accession A02 assessed as fresh weight reduction applied at recommended rate incorporated into the soil prior weed seedlings relative to untreated control; design: scale not given: the % may be the effect or the level left
Lolium rigidum [33] = experiment: Herbicidal activity against Lolium rigidum accession A01 assessed as fresh weight reduction applied at recommended rate incorporated into the soil prior weed seedlings relative to untreated control; design: scale not given: the % may be the effect or the level left
Lolium rigidum [34] = experiment: Herbicidal activity against Lolium rigidum accession A02 assessed as emergence rate applied at recommended rate incorporated into the soil prior weed seedlings relative to untreated control
Lolium rigidum [35] = experiment: Herbicidal activity against Lolium rigidum accession A01 assessed as emergence rate applied at recommended rate incorporated into the soil prior weed seedlings relative to untreated control
Lolium rigidum [36] = experiment: Herbicidal activity against Lolium rigidum accession A15 assessed as fresh weight reduction applied at recommended rate incorporated into the soil prior weed seedlings relative to untreated control; design: scale not given: the % may be the effect or the level left
Lolium rigidum [37] = experiment: Herbicidal activity against Lolium rigidum accession A14 assessed as fresh weight reduction applied at recommended rate incorporated into the soil prior weed seedlings relative to untreated control; design: scale not given: the % may be the effect or the level left
Lolium rigidum [38] = experiment: Herbicidal activity against Lolium rigidum accession A13 assessed as fresh weight reduction applied at recommended rate incorporated into the soil prior weed seedlings relative to untreated control; design: scale not given: the % may be the effect or the level left
Lolium rigidum [39] = experiment: Herbicidal activity against Lolium rigidum accession A12 assessed as fresh weight reduction applied at recommended rate incorporated into the soil prior weed seedlings relative to untreated control; design: scale not given: the % may be the effect or the level left
Lolium rigidum [40] = experiment: Herbicidal activity against Lolium rigidum accession A11 assessed as fresh weight reduction applied at recommended rate incorporated into the soil prior weed seedlings relative to untreated control; design: scale not given: the % may be the effect or the level left
Lolium rigidum [41] = experiment: Herbicidal activity against Lolium rigidum accession A10 assessed as fresh weight reduction applied at recommended rate incorporated into the soil prior weed seedlings relative to untreated control; design: scale not given: the % may be the effect or the level left
Lolium rigidum [42] = experiment: Herbicidal activity against Lolium rigidum accession A09 assessed as fresh weight reduction applied at recommended rate incorporated into the soil prior weed seedlings relative to untreated control; design: scale not given: the % may be the effect or the level left
Lolium rigidum [43] = experiment: Herbicidal activity against Lolium rigidum accession A08 assessed as fresh weight reduction applied at recommended rate incorporated into the soil prior weed seedlings relative to untreated control; design: scale not given: the % may be the effect or the level left
Lolium rigidum [44] = experiment: Herbicidal activity against Lolium rigidum accession A07 assessed as fresh weight reduction applied at recommended rate incorporated into the soil prior weed seedlings relative to untreated control; design: scale not given: the % may be the effect or the level left
Lolium rigidum [45] = experiment: Herbicidal activity against Lolium rigidum accession A06 assessed as fresh weight reduction applied at recommended rate incorporated into the soil prior weed seedlings relative to untreated control; design: scale not given: the % may be the effect or the level left
Lolium rigidum [46] = experiment: Herbicidal activity against Lolium rigidum accession A05 assessed as fresh weight reduction applied at recommended rate incorporated into the soil prior weed seedlings relative to untreated control; design: scale not given: the % may be the effect or the level left
Lolium rigidum [47] = experiment: Herbicidal activity against Lolium rigidum accession A04 assessed as fresh weight reduction applied at recommended rate incorporated into the soil prior weed seedlings relative to untreated control; design: scale not given: the % may be the effect or the level left
Lolium rigidum [48] = experiment: Herbicidal activity against Lolium rigidum accession A15 assessed as emergence rate applied at recommended rate incorporated into the soil prior weed seedlings relative to untreated control
Lolium rigidum [49] = experiment: Herbicidal activity against Lolium rigidum accession A14 assessed as emergence rate applied at recommended rate incorporated into the soil prior weed seedlings relative to untreated control
Lolium rigidum [50] = experiment: Herbicidal activity against Lolium rigidum accession A13 assessed as emergence rate applied at recommended rate incorporated into the soil prior weed seedlings relative to untreated control
Lolium rigidum [51] = experiment: Herbicidal activity against Lolium rigidum accession A12 assessed as emergence rate applied at recommended rate incorporated into the soil prior weed seedlings relative to untreated control
Lolium rigidum [52] = experiment: Herbicidal activity against Lolium rigidum accession A11 assessed as emergence rate applied at recommended rate incorporated into the soil prior weed seedlings relative to untreated control
Lolium rigidum [53] = experiment: Herbicidal activity against Lolium rigidum accession A10 assessed as emergence rate applied at recommended rate incorporated into the soil prior weed seedlings relative to untreated control
Lolium rigidum [54] = experiment: Herbicidal activity against Lolium rigidum accession A09 assessed as emergence rate applied at recommended rate incorporated into the soil prior weed seedlings relative to untreated control
Lolium rigidum [55] = experiment: Herbicidal activity against Lolium rigidum accession A08 assessed as emergence rate applied at recommended rate incorporated into the soil prior weed seedlings relative to untreated control
Lolium rigidum [56] = experiment: Herbicidal activity against Lolium rigidum accession A07 assessed as emergence rate applied at recommended rate incorporated into the soil prior weed seedlings relative to untreated control
Lolium rigidum [57] = experiment: Herbicidal activity against Lolium rigidum accession A06 assessed as emergence rate applied at recommended rate incorporated into the soil prior weed seedlings relative to untreated control
Lolium rigidum [58] = experiment: Herbicidal activity against Lolium rigidum accession A05 assessed as emergence rate applied at recommended rate incorporated into the soil prior weed seedlings relative to untreated control
Lolium rigidum [59] = experiment: Herbicidal activity against Lolium rigidum accession A04 assessed as emergence rate applied at recommended rate incorporated into the soil prior weed seedlings relative to untreated control
Lolium rigidum [60] = experiment: Herbicidal activity against Lolium rigidum accession A03 assessed as emergence rate applied at recommended rate incorporated into the soil prior weed seedlings relative to untreated control

## CCCN(CCC)C(=O)SCc1ccccc1 [PROSULFOCARB]
Lolium rigidum [1]
  Activity: 0%
Lolium rigidum [2]
  Activity: 0%
Lolium rigidum [3]
  Activity: 0%
Lolium rigidum [4]
  Activity: 0%
Lolium rigidum [5]
  Activity: 1%
Lolium rigidum [6]
  Activity: 0%
Lolium rigidum [7]
  Activity: 0%
Lolium rigidum [8]
  Activity: 0%
Lolium rigidum [9]
  Activity: 0%
Lolium rigidum [10]
  Activity: 0%
Lolium rigidum [11]
  Activity: 0%
Lolium rigidum [12]
  Activity: 1%
Lolium rigidum [13]
  Activity: 0%
Lolium rigidum [14]
  Activity: 0%
Lolium rigidum [15]
  Activity: 0%
Lolium rigidum [16]
  Activity: 100%
Lolium rigidum [17]
  Activity: 100%
Lolium rigidum [18]
  Activity: 100%
Lolium rigidum [19]
  Activity: 99%
Lolium rigidum [20]
  Activity: 100%
Lolium rigidum [21]
  Activity: 100%
Lolium rigidum [22]
  Activity: 100%
Lolium rigidum [23]
  Activity: 100%
Lolium rigidum [24]
  Activity: 100%
Lolium rigidum [25]
  Activity: 100%
Lolium rigidum [26]
  Activity: 98%
Lolium rigidum [27]
  Activity: 100%
Lolium rigidum [28]
  Activity: 100%
Lolium rigidum [29]
  Activity: 100%
Lolium rigidum [30]
  Activity: 100%

## CCOP(=S)(OCC)SCSC(C)(C)C [TERBUFOS]
Lolium rigidum [31]
  Activity: 0%
Lolium rigidum [32]
  Activity: 0%
Lolium rigidum [33]
  Activity: 0%
Lolium rigidum [34]
  Activity: 97%
Lolium rigidum [35]
  Activity: 99%
Lolium rigidum [36]
  Activity: 0%
Lolium rigidum [37]
  Activity: 1%
Lolium rigidum [38]
  Activity: 0%
Lolium rigidum [39]
  Activity: 2%
Lolium rigidum [40]
  Activity: 0%
Lolium rigidum [41]
  Activity: 0%
Lolium rigidum [42]
  Activity: 0%
Lolium rigidum [43]
  Activity: 0%
Lolium rigidum [44]
  Activity: 0%
Lolium rigidum [45]
  Activity: 0%
Lolium rigidum [46]
  Activity: 1%
Lolium rigidum [47]
  Activity: 0%
Lolium rigidum [48]
  Activity: 99%
Lolium rigidum [49]
  Activity: 94%
Lolium rigidum [50]
  Activity: 100%
Lolium rigidum [51]
  Activity: 93%
Lolium rigidum [52]
  Activity: 98%
Lolium rigidum [53]
  Activity: 95%
Lolium rigidum [54]
  Activity: 99%
Lolium rigidum [55]
  Activity: 100%
Lolium rigidum [56]
  Activity: 93%
Lolium rigidum [57]
  Activity: 97%
Lolium rigidum [58]
  Activity: 95%
Lolium rigidum [59]
  Activity: 100%
Lolium rigidum [60]
  Activity: 98%
